molecular target: T1, USP25 (USP25-His6, Boston Biochem E-546) (Homo sapiens, UniProt Q9UHP3); assay: Ubiquitin-Rhodamine 110 Assay for USP25 Activity, Example A-2; assay type: biochemical; settings: Ubiquitin-Rhodamine 110 assay, Example A-2; read-out: USP25 A-2 IC50 range
T1 construct: His6; purchased Boston Biochem E-546
T1 sequence (Q9UHP3 1-1055): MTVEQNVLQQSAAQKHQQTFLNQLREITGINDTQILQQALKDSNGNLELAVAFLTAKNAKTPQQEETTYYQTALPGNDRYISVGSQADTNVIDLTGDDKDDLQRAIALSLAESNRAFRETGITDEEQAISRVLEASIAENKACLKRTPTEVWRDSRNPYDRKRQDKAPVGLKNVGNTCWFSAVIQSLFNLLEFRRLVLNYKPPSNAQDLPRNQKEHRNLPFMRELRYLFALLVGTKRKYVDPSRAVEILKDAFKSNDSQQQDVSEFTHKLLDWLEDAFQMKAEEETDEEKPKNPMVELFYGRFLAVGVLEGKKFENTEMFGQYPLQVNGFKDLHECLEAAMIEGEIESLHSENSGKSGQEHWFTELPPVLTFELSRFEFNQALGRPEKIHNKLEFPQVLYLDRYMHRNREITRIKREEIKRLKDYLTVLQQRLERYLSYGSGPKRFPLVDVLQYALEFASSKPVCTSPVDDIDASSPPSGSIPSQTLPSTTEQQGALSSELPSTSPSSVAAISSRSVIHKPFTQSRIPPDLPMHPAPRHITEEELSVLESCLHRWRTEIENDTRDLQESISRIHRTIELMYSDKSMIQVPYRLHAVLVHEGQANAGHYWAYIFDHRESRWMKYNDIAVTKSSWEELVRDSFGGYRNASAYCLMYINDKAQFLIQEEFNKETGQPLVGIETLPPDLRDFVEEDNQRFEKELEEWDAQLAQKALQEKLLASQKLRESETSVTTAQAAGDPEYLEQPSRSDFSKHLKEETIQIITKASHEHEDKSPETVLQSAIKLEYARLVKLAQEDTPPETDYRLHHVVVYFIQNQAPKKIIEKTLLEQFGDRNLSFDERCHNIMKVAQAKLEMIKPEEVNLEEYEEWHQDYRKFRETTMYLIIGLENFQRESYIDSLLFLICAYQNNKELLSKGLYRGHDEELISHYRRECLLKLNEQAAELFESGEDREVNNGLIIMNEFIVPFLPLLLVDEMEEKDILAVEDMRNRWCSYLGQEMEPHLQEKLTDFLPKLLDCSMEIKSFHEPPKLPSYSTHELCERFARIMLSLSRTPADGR
In short: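 75 pM USP25-His6 was preincubated 30 min with compound (10-point 3-fold series, 25 μM–1.3 nM) in pH 8.0 Tris buffer with BME, BGG and Triton X-100. Then 25 nM Ub-Rh110 (<<Km) was added for 45 min at room temperature, stopped with citric acid, fluorescence read at 485/535 nm, IC50 by 4-parameter fit.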

| SMILES | IC50 [nM] |
| --- | --- |
| CO[C@@H]1CCN(c2ccc3c(n2)CC[C@H](NC(=O)c2sc4nc(C)ccc4c2N)C3)C[C@H]1N (single isomer, unassigned) [Example 316] | > 2000 |
| COC[C@@]1(C)CN(c2ccc3c(n2)CC[C@H](NC(=O)c2sc4nc(C)ccc4c2N)C3)C[C@@H]1N [Example 341, 3-amino-N-[(6S)-2-[(3S,4R)-4-amino-3-(methoxymethyl)-3-methylpyrrolidin-1-yl]-5,6,7,8-tetrahydroquinolin-6-yl]-6-methylthieno[2,3-b]pyridine-2-carboxamide] | 200 to 2000 |
| Cc1ccc2c(N)c(C(=O)N[C@H]3COc4nc(N5C[C@H](OC(C)C)[C@@H](N)C5)ccc4C3)sc2n1 [Example 287, 3-amino-N-[(3R)-7-[(3S,4S)-3-amino-4-(propan-2-yloxy)pyrrolidin-1-yl]-2H,3H,4H-pyrano[2,3-b]pyridin-3-yl]-6-methylthieno[2,3-b]pyridine-2-carboxamide] | > 2000 |
| Cc1ccc2c(N)c(C(=O)N[C@H]3COc4cc(N5CCC6(CNC6)C5)ccc4C3)sc2n1 [Example 306, 3-amino-N-[(3R)-7-{2,6-diazaspiro[3.4]octan-6-yl}-3,4-dihydro-2H-1-benzopyran-3-yl]-6-methylthieno[2,3-b]pyridine-2-carboxamide] | 200 to 2000 |
| COC[C@]1(C)CN(c2ccc3c(n2)CC[C@H](NC(=O)c2sc4nc(C)ccc4c2N)C3)C[C@H]1N [Example 344, 3-amino-N-[(6S)-2-[(3R,4S)-4-amino-3-(methoxymethyl)-3-methylpyrrolidin-1-yl]-5,6,7,8-tetrahydroquinolin-6-yl]-6-methylthieno[2,3-b]pyridine-2-carboxamide] | 200 to 2000 |
| CCOC[C@H]1CN(c2ccc3c(c2)OC[C@H](NC(=O)c2sc4nc(C)ccc4c2N)C3)C[C@H]1N [Example 314, 3-amino-N-[(3R)-7-[(3S,4S)-3-amino-4-(ethoxymethyl)pyrrolidin-1-yl]-3,4-dihydro-2H-1-benzopyran-3-yl]-6-methylthieno[2,3-b]pyridine-2-carboxamide] | 50 to 200 |
| CN[C@@H]1CN(c2ccc3c(n2)CC[C@H](NC(=O)c2sc4nc(C)ccc4c2N)C3)C[C@]1(C)O [Example 332, 3-amino-N-[(6S)-2-[(3S,4R)-3-hydroxy-3-methyl-4-(methylamino)pyrrolidin-1-yl]-5,6,7,8-tetrahydroquinolin-6-yl]-6-methylthieno[2,3-b]pyridine-2-carboxamide] | > 2000 |
| CO[C@]1(C)CN(c2ccc3c(n2)OC[C@H](NC(=O)c2sc4nc(C)ccc4c2N)C3)C[C@H]1N [Example 326, 3-amino-N-[(3R)-7-[(3R,4R)-4-amino-3-methoxy-3-methylpyrrolidin-1-yl]-2H,3H,4H-pyrano[2,3-b]pyridin-3-yl]-6-methylthieno[2,3-b]pyridine-2-carboxamide] | > 2000 |
| COC[C@@H]1CN(c2ccc3c(c2)OC[C@H](NC(=O)c2sc4nc(C)cc(C)c4c2N)C3)C[C@@H]1N [Example 275, 3-amino-N-[(3R)-7-[(3R,4R)-3-amino-4-(methoxymethyl)pyrrolidin-1-yl]-3,4-dihydro-2H-1-benzopyran-3-yl]-4,6-dimethylthieno[2,3-b]pyridine-2-carboxamide] | 200 to 2000 |
| COC[C@@H]1C[C@H](N)CN1c1ccc2c(c1)OC[C@H](NC(=O)c1sc3nc(C)ccc3c1N)C2 [Example 263, 3-amino-N-[(3R)-7-[(2S,4S)-4-amino-2-(methoxymethyl)pyrrolidin-1-yl]-3,4-dihydro-2H-1-benzopyran-3-yl]-6-methylthieno[2,3-b]pyridine-2-carboxamide] | 50 to 200 |
| Cc1cnc2c(N)c(C(=O)N[C@H]3CCc4cc(N5C[C@H](OC(C)C)[C@@H](N)C5)ccc4C3)sc2n1 [Example 319, 7-amino-N-[(2S)-6-[(3S,4S)-3-amino-4-(propan-2-yloxy)pyrrolidin-1-yl]-1,2,3,4-tetrahydronaphthalen-2-yl]-3-methylthieno[2,3-b]pyrazine-6-carboxamide] | > 2000 |
| COC[C@@H]1CN(c2nc3c(cc2F)C[C@H](NC(=O)c2sc4nc(C)ccc4c2N)CC3)C[C@@H]1N (single isomer, unassigned) [Example 302] | 200 to 2000 |
| CCO[C@H]1CN(c2ccc3c(c2)CC[C@H](NC(=O)c2sc4nc(C)ccc4c2N)C3)C[C@H]1N [Example 268, 3-amino-N-[(2S)-6-[(3R,4S)-3-amino-4-ethoxypyrrolidin-1-yl]-1,2,3,4-tetrahydronaphthalen-2-yl]-6-methylthieno[2,3-b]pyridine-2-carboxamide] | > 2000 |
| COC[C@H]1C[C@@H](N)CN1c1ccc2c(c1)OC[C@H](NC(=O)c1sc3nc(C)ccc3c1N)C2 [Example 262, 3-amino-N-[(3R)-7-[(2R,4R)-4-amino-2-(methoxymethyl)pyrrolidin-1-yl]-3,4-dihydro-2H-1-benzopyran-3-yl]-6-methylthieno[2,3-b]pyridine-2-carboxamide] | 200 to 2000 |
| COC[C@H]1CN(c2ccc3c(c2)OC[C@H](NC(=O)c2sc4nc(C)cc(C)c4c2N)C3)C[C@H]1N [Example 276, 3-amino-N-[(3R)-7-[(3S,4S)-3-amino-4-(methoxymethyl)pyrrolidin-1-yl]-3,4-dihydro-2H-1-benzopyran-3-yl]-4,6-dimethylthieno[2,3-b]pyridine-2-carboxamide] | 50 to 200 |
| CO[C@H]1CN(c2ccc3c(n2)CC[C@H](NC(=O)c2sc4nc(C)ccc4c2N)C3)C[C@H]1N [Example 270, 3-amino-N-[(6S)-2-[(3R,4S)-3-amino-4-methoxypyrrolidin-1-yl]-5,6,7,8-tetrahydroquinolin-6-yl]-6-methylthieno[2,3-b]pyridine-2-carboxamide] | > 2000 |
| CO[C@@]1(C)CN(c2ccc3c(c2)OC[C@H](NC(=O)c2sc4nc(C)ccc4c2N)C3)C[C@@H]1N [Example 281, 3-amino-N-[(3R)-7-[(3S,4S)-4-amino-3-methoxy-3-methylpyrrolidin-1-yl]-3,4-dihydro-2H-1-benzopyran-3-yl]-6-methylthieno[2,3-b]pyridine-2-carboxamide] | 200 to 2000 |
| CN[C@H]1CN(c2ccc3c(n2)CC[C@H](NC(=O)c2sc4nc(C)ccc4c2N)C3)C[C@@]1(C)O [Example 331, 3-amino-N-[(6S)-2-[(3R,4S)-3-hydroxy-3-methyl-4-(methylamino)pyrrolidin-1-yl]-5,6,7,8-tetrahydroquinolin-6-yl]-6-methylthieno[2,3-b]pyridine-2-carboxamide] | > 2000 |
| Cc1ccc2c(N)c(C(=O)N[C@H]3COc4cc(N5C[C@@H]6CCN[C@@H]6C5)ccc4C3)sc2n1 [Example 304, N-[(3R)-7-[(3aS,6aS)-octahydropyrrolo[3,4-b]pyrrol-5-yl]-3,4-dihydro-2H-1-benzopyran-3-yl]-3-amino-6-methylthieno[2,3-b]pyridine-2-carboxamide] | 200 to 2000 |
| Cc1ccc2c(N)c(C(=O)N[C@H]3COc4cc(N5C[C@H](N)[C@]6(CCCO6)C5)ccc4C3)sc2n1 [Example 307, 3-amino-N-[(3R)-7-[(5S,9S)-9-amino-1-oxa-7-azaspiro[4.4]nonan-7-yl]-3,4-dihydro-2H-1-benzopyran-3-yl]-6-methylthieno[2,3-b]pyridine-2-carboxamide] | 200 to 2000 |
| CO[C@H]1[C@H](N)CN(c2ccc3c(c2)OC[C@H](NC(=O)c2sc4nc(C)ccc4c2N)C3)[C@H]1C [Example 334, 3-amino-N-[(3R)-7-[(2S,3S,4R)-4-amino-3-methoxy-2-methylpyrrolidin-1-yl]-3,4-dihydro-2H-1-benzopyran-3-yl]-6-methylthieno[2,3-b]pyridine-2-carboxamide] | 1 to 50 |
| Cc1ccc2c(N)c(C(=O)N[C@H]3COc4cc(N5C[C@H](C(F)F)[C@@H](N)C5)ccc4C3)sc2n1 [Example 294, 3-amino-N-[(3R)-7-[(3R,4S)-3-amino-4-(difluoromethyl)pyrrolidin-1-yl]-3,4-dihydro-2H-1-benzopyran-3-yl]-6-methylthieno[2,3-b]pyridine-2-carboxamide] | 50 to 200 |
| CO[C@]1(C)CN(c2ccc3c(c2)OC[C@H](NC(=O)c2sc4nc(C)ccc4c2N)C3)C[C@H]1N [Example 282, 3-amino-N-[(3R)-7-[(3R,4R)-4-amino-3-methoxy-3-methylpyrrolidin-1-yl]-3,4-dihydro-2H-1-benzopyran-3-yl]-6-methylthieno[2,3-b]pyridine-2-carboxamide] | 200 to 2000 |
